The values below come from EPA's ToxValDB 9.5.

SMILES strings stand for the structures. Converted amounts (≈) assume the structure as drawn. “And” between values parts separate entries of the source, which are not always exact repeats. Identical values can stand only once.

Data set [1] has as its system Rattus norvegicus. The settings on record: for LC50 / LD50: acute.
Another data set deals with Oryctolagus sp. To be noted: for LD50: acute, dermal.
In data set [2] the test system is Rattus norvegicus. In words: LC50. The settings on record: acute; oral; gavage.
The next data set has as its system Cavia porcellus. The settings on record: uterotrophic; duration: 12 days; injection; subcutaneous; Guinea Pig; Active.
Data set [3] deals with Rattus norvegicus. In words: LC100; higher = less toxic. The settings on record: acute; inhalation; Sprague-Dawley.
Data set [4] has as its system Canidae. To be noted: subchronic; duration: 13 weeks; oral; capsule; M/F; Dog Other; histopathologic liver.
The subject of data set [5] is Rattus norvegicus. The settings on record: reproduction developmental; inhalation; whole body; M/F; Crl:CD(SD); Hepatic, Urinary.
Data set [6] relates to Rattus norvegicus. To be noted: oral, gavage.
The test system of data set [7] is Canidae. To be noted: Beagle.
Data set [8] deals with Mus musculus. The settings on record: oral, gavage.
Data set [9] deals with Mus musculus. In words: LD100; higher = less toxic. The settings on record: acute; oral; gavage; B6C3F1.
Data set [10] relates to Rattus norvegicus. Nature of the data set: LD10; higher = less toxic. To be noted: acute; inhalation.
The subject of a further data set is Sus scrofa. The settings on record: repeat dose other; oral; diet; M/F; Not specified; Renal proximal tubule degeneration & interstitial nephropathy.
In data set [11] the test system is Rattus norvegicus. To be noted: dietary / carcinogenicity; duration: 2 years; oral; feed; M/F; Hepatocellular lipid vacuolation.
The next data set deals with Cricetulus sp. The settings on record: acute; oral; Chinese.
The mark [12] stands for this setting: developmental, duration: 10 days, oral, gavage, Sprague-Dawley.
[13] abbreviates: reproduction developmental, duration: 10 days, oral, gavage, F, Sprague-Dawley.
The mark [14] stands for this setting: short-term, duration: 28 days, oral, diet, Sprague-Dawley.
Setting [15] is: subchronic, duration: 90 days, oral, diet, Sprague-Dawley.
The mark [16] stands for this setting: reproduction developmental, duration: 12 days, oral, gavage, F, New Zealand.
Where [17] appears, read: short-term, duration: 18 days, inhalation, Sprague-Dawley.
The mark [18] stands for this setting: reproduction developmental, duration: 13 weeks, B6C3F1, generation: F0.
The mark [19] stands for this setting: reproduction developmental, duration: 13 weeks, oral, gavage, Fischer 344, generation: F0.
Where [20] appears, read: short-term, duration: 28 days, M, Sprague-Dawley, Clinical Observation: Salivation increase + Blood Chemistry: AST increase, T-Cho decrease, CRE increase, TP increase, ALB increase, GLUC ….

Turning to `O=C1c2c(Br)c(Br)c(Br)c(Br)c2C(=O)N1CCN1C(=O)c2c(Br)c(Br)c(Br)c(Br)c2C1=O` [1,2-Bis(tetrabromophthalimido)ethane], the no-observed-adverse-effect level (NOAEL) with Rattus norvegicus [1] (setting [12]), in the data set with Rattus norvegicus [1] (setting [13]), in the data set on Rattus norvegicus [1] (setting [15]) and with Oryctolagus sp. (setting [16]) was at least 1000 mg/kg-day each time. Also, the “LOAEL (% diet)” value with Rattus norvegicus [1] (setting [14]) is over 1. Besides, the “NOAEL (% diet)” value was at least 1 in the data set with Rattus norvegicus [1] (setting [14]) and 1 with Rattus norvegicus [1] (setting [15]). The LOAEL (as a rule, the lowest tested level that showed an adverse finding) is at least 1000 mg/kg-day with Rattus norvegicus [1] (setting [15]) and under 1000 mg/kg-day with Oryctolagus sp. (setting [16]). Moreover, the LD50 (usually the dose at which mortality reaches 50%) with Rattus norvegicus [2] was over 7500 mg/kg.

`CC/C(=C(\c1ccccc1)c1ccc(OCCN(C)C)cc1)c1ccccc1` [Tamoxifen]: the LEL in the data set on Cavia porcellus came to 0.1 mg/day.

On to `CCC#N` [Propionitrile], for which the LC50 – broadly, the concentration lethal to half of the exposed cells or organisms – in the data set on Rattus norvegicus [1] (inhalation, Sprague-Dawley) came to 3.3 µg/mL (≈ 59.9 µM). Besides, the NOAEL (in general, the highest dose or exposure tested at which no adverse effect was seen) is 40 mg/kg-day in the data set with Rattus norvegicus [1] (developmental, duration: 6 days, oral, gavage, Sprague-Dawley); over 471 mg/m3 in the data set on Rattus norvegicus [1] (reproduction developmental, duration: 14 weeks, inhalation, Sprague-Dawley); 135 mg/m3 in the data set with Rattus norvegicus [1] (reproduction developmental, duration: 46 days, inhalation, Sprague-Dawley, generation: F0); 473 mg/m3 in the data set with Rattus norvegicus [1] (reproduction developmental, duration: 46 days, inhalation, Sprague-Dawley, generation: F1); 259 mg/m3 in the data set on Rattus norvegicus [1] (setting [17]). The same molecule gave an LOAEL in the data set with Rattus norvegicus [1] (setting [17]) of 741 mg/m3. For the same molecule, in the data set on Oryctolagus sp. (occlusive, New Zealand), the 50% lethal dose (LD50) is 90 mg/kg and 40 mg/kg and 56 mg/kg. The LC100 in the data set on Rattus norvegicus [3] was found to be 90.3 mg/L.

As to `Clc1ccccc1` [Chlorobenzene], the lowest-observed-adverse-effect level (LOAEL) with Canidae [4] came out at 54.5 mg/kg-day; with Mus musculus [8] (setting [18]), 250 mg/kg-day; with Rattus norvegicus [1] (setting [19]) it was 250 mg/kg-day. The NOAEL is 27.2 mg/kg-day in the data set on Canidae [4]; 230 mg/m3 in the data set on Rattus norvegicus [5]; 2.06 mg/L in the data set with Canidae [7] (chronic, duration: 6 months, inhalation); 54.5 mg/kg-day in the data set on Canidae [7] (chronic, duration: 93 days, oral); 125 mg/kg-day in the data set with Mus musculus [8] (setting [18]); 125 mg/kg-day with Rattus norvegicus [1] (setting [19]). In addition, the NOAEL amounted to 230 mg/m3 in the data set with Rattus norvegicus [1] (reproduction developmental, inhalation, Sprague-Dawley, generation: F0); 2070 mg/m3 in the data set with Rattus norvegicus [1] (reproduction developmental, inhalation, Sprague-Dawley, generation: F1); 2070 mg/m3 in the data set with Rattus norvegicus [1] (reproduction developmental, inhalation, Sprague-Dawley, generation: F2); 345 mg/m3 in the data set with Oryctolagus sp. (reproduction developmental, duration: 13 days, inhalation, F, New Zealand); 2720 mg/m3 in the data set on Oryctolagus sp. (reproduction developmental, duration: 13 days, inhalation, New Zealand, generation: F1). For the same molecule, the NOEL with Rattus norvegicus [6] (subchronic, duration: 13 weeks, M/F, Fischer 344, Deaths + Body Weight Changes: decrease + Urinalysis: Volume increase, Coproporphyrin increase + Blood Chemistry: Cho increase, TG decrease, …) is under 60 mg/kg-day. In addition, the 50% lethal dose (LD50) with Rattus norvegicus [1] (oral, Sprague-Dawley) was 1540 mg/kg; in the data set with Rattus norvegicus [1] (oral, gavage, Fischer 344), ≥ 2000 mg/kg and ≤ 4000 mg/kg; with Oryctolagus sp. (New Zealand), over 7940 mg/kg. The LD100 with Mus musculus [9] stood at 1000 mg/kg.

For the molecule `C=C1CC(=O)O1` [Diketene], the LD10 in the data set with Rattus norvegicus [10] is 1270 mg/m3 and ≥ 1190 mg/m3 and ≤ 1410 mg/m3. In addition, the 50% lethal dose (LD50) is ≥ 800 mg/kg and ≤ 1600 mg/kg in the data set with Mus musculus [8] (acute); ≥ 400 mg/kg and ≤ 800 mg/kg with Rattus norvegicus [1] (oral, gavage).

Take `C[C@@H]1Cc2c(Cl)cc(C(=O)N[C@@H](Cc3ccccc3)C(=O)O)c(O)c2C(=O)O1` [Ochratoxin A]: the LOEL with Sus scrofa was determined as 0.008 mg/kg-day. In addition, in the data set on Rattus norvegicus [6] (setting [20]), the NOAEL is under 0.2 mg/kg-day and the NOEL was under 0.2 mg/kg-day. In addition, the NOEL in the data set with Rattus norvegicus [6] (subchronic, duration: 13 weeks, M/F, Fischer 344, Body Weight Changes: decrease + Relative Organ Weight: Right kidney decrease + Histopathology: Kidney-Karyomegaly Kidney-Atrophy Kidney/…) was under 0.0625 mg/kg-day.

In the case of `COC(=O)Nc1nc2ccc(S(=O)c3ccccc3)cc2[nH]1` (configuration not stated) [Oxfendazole], in the data set with Rattus norvegicus [11], the NOEL amounted to 0.7 mg/kg-day.

As to `CCCCCCCCCCCCCCCCCCOC(=O)CCc1cc(C(C)(C)C)c(O)c(C(C)(C)C)c1` [Octadecyl 3-(3,5-di-tert-butyl-4-hydroxyphenyl)propionate], the no observed adverse effect level (NOAEL) with Rattus norvegicus [6] (short-term, duration: 28 days, M/F, Sprague-Dawley, Urinalysis: N/A(measured only 16h volume) + Absolute Organ Weight: Liver increase + Relative Organ Weight: Liver increase + Necropsy: Kidney…) is 30 mg/kg-day; in the data set with Canidae [7] (subchronic, duration: 3 months, oral, diet) it was ≥ 31.5 mg/kg-day and ≤ 34.5 mg/kg-day; in the data set on Mus musculus [8] (developmental, duration: 10 days, NMRI) it was over 1000 mg/kg-day; in the data set on Mus musculus [8] (reproduction developmental, duration: 10 days, F, NMRI), 500 mg/kg-day; in the data set on Rattus norvegicus [1] (chronic, duration: 104 weeks, oral, diet, Cfy), 39 mg/kg-day; in the data set on Rattus norvegicus [1] (setting [12]) it was over 1000 mg/kg-day. The NOAEL in the data set with Rattus norvegicus [1] (reproduction developmental, duration: 10 months, oral, diet, COBS(R)CD(R), generation: F0) was 1500 ppm; with Rattus norvegicus [1] (reproduction developmental, duration: 10 months, oral, diet, COBS(R)CD(R), generation: F1), under 500 ppm; with Rattus norvegicus [1] (reproduction developmental, duration: 10 months, oral, diet, COBS(R)CD(R), generation: F2) it was under 500 ppm; in the data set with Rattus norvegicus [1] (setting [13]), 150 mg/kg-day; in the data set on Rattus norvegicus [1] (reproduction developmental, duration: 10 days, oral, gavage, generation: F0), 150 mg/kg-day; in the data set on Rattus norvegicus [1] (reproduction developmental, oral, diet, F) it was 1500 ppm. Also, the no-observed-adverse-effect level (NOAEL) was 1500 ppm in the data set with Rattus norvegicus [1] (reproduction developmental, oral, diet, generation: F0); over 0.543 mg/L with Rattus norvegicus [1] (short-term, duration: 21 days, inhalation, RAI f (SPF)); 1000 mg/kg-day in the data set on Rattus norvegicus [1] (short-term, duration: 28 days, oral, diet, F); 100 mg/kg-day in the data set on Rattus norvegicus [1] (short-term, duration: 28 days, oral, diet, M); 30 mg/kg-day in the data set on Rattus norvegicus [1] (short-term, duration: 28 days, oral, gavage, Sprague-Dawley). In addition, the LC50 with Rattus norvegicus [1] (inhalation) is over 1.8 µg/mL; in the data set with Rattus norvegicus [1] (inhalation, particle), over 1.8 µg/mL. Besides, the LD50 with Rattus norvegicus [1] (injection, Intraperitoneal) is over 1000 mg/kg; in the data set on Rattus norvegicus [1] (injection, intraperitoneal), over 1000 mg/kg; with Rattus norvegicus [1] (oral), over 5000 mg/kg; in the data set with Cricetulus sp., over 6000 mg/kg; in the data set on Oryctolagus sp., over 2000 mg/kg. The same molecule showed an LOAEL in the data set on Rattus norvegicus [1] (developmental, oral, diet) of 500 ppm.
